The target of one assay is T1, M4 muscarinic receptor (Homo sapiens, UniProt P08173).
T1 construct: expressed in transfected cells; host or cells: CHO (M4-CHO)
T1 sequence (P08173 1-479): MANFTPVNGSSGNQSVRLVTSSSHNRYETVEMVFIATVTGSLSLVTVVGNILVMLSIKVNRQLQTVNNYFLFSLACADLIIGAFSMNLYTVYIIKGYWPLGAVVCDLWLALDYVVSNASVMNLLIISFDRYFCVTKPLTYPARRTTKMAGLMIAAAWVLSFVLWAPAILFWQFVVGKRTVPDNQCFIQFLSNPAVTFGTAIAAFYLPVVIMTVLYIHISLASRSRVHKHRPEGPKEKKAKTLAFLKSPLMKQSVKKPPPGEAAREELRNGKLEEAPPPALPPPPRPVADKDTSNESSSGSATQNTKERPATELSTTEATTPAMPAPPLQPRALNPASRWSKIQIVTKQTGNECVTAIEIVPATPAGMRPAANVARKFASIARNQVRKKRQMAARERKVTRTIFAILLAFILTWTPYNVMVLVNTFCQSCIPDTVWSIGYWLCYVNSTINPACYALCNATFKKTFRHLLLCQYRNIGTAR
Nature of the assay: Functional mobilization of intracellular calcium (FLIPR) in M4-CHO cells. It is filed as cell-based. The essentials:
(§1)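 Two modes: direct compound addition for agonism, or 15 min compound pre-incubation (or co-application) before carbachol at EC80 for inhibition. Calcium signal from Fluo-3 AM or Calcium 3 dye in CHO cells, 1 mM probenecid, pH 7.4, read 60 sec at 488/540 nm; DMSO 0.5% final.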

Another assay addresses T2, M1 muscarinic receptor (Homo sapiens, UniProt P11229).
T2 construct: expressed in transfected cells; host or cells: CHO (M1-CHO)
T2 sequence (P11229 1-460): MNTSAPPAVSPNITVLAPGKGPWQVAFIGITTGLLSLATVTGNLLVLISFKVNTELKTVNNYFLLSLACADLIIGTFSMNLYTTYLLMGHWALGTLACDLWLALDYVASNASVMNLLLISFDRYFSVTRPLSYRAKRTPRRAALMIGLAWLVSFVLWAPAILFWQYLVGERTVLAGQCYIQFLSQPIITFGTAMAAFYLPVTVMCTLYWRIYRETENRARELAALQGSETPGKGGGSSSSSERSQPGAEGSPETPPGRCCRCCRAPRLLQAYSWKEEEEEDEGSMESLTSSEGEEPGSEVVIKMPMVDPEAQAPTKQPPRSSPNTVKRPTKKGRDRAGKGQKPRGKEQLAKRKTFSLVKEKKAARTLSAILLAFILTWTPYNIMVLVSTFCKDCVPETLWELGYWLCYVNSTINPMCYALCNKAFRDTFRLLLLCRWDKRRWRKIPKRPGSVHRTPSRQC
Put plainly: Functional mobilization of intracellular calcium (FLIPR) in M1-CHO cells. In kind it is cell-based. The essentials: as §1
On the technique in general: Calcium flux is commonly read through the fluorescence of an indicator in the cells.

[1] abbreviates: M4 receptor, calcium mobilization.
[2] abbreviates: M4 receptor, calcium mobilization, read-out: M4 Efficacy.
Setting [3] is: M1 receptor, calcium mobilization.
The mark [4] stands for this setting: M1 receptor, calcium mobilization, read-out: M1 Efficacy.
The mark [5] stands for this setting: Table 4, 100% efficacy is the maximum response obtained with the Carbachol control.
The mark [6] stands for this setting: Table 4, M4 receptor, calcium mobilization (FLIPR).
Where [7] appears, read: Table 4, M1 receptor, calcium mobilization (FLIPR).
[8] abbreviates: Table 4, modulating M4 receptor.
[9] abbreviates: Table 4, modulating M1 receptor.

Read-outs that look alike come from different tables or passages of the source.

Regarding `CCOC(=O)N1CCC(N2CCC3(CC2)CN(C(=O)C2CCCCC2)c2ccc(F)cc23)CC1` [compound 281], on M4 muscarinic receptor (setting [1]), the “M4 Activity” value is “xx (activity was measured to be between 0.1 μM and 1.0 μM)”. In addition, the Emax on M4 muscarinic receptor (setting [2]) is 65 to 85%; at M1 muscarinic receptor (setting [4]) it was less than 65%. Moreover, the “M1 Activity” value at M1 muscarinic receptor (setting [3]) was “xx (activity was measured to be between 0.1 μM and 1.0 μM)”.
With `CCOC(=O)N1CCC(N2CCC3(CC2)CN(C(C)=O)c2c(-c4ccsc4)cccc23)CC1` [compound 956], the Emax at M4 muscarinic receptor (setting [5]) was less than 25%; on M1 muscarinic receptor (setting [5]), 25 to 100%. Further, the “M4 Activity” value at M4 muscarinic receptor (setting [6]) is recorded as “x (activity was measured to be greater than 5.0 μM)”. In addition, the “M1 Activity” value at M1 muscarinic receptor (setting [7]) is “x (activity was measured to be greater than 5.0 μM)”.
As for `CCOC(=O)N1CCC(N2CCC3(CC2)CN(C(=O)O[C@H]2CCOC2)c2ccc(F)cc23)CC1` [compound 49], the “M4 Activity” value at M4 muscarinic receptor (setting [1]) is on record as “xxx (activity was measured to be less than 0.1 μM)”. The values for the Emax at M4 muscarinic receptor (setting [2]) and at M1 muscarinic receptor (setting [4]) were 65 to 85% and more than 85%, respectively. The “M1 Activity” value at M1 muscarinic receptor (setting [3]) is listed as “xxx (activity was measured to be less than 0.1 μM)”.
For `Clc1ccc2c(c1)C1(CCN(C3CCOCC3)CC1)CN2` [compound 37], at M4 muscarinic receptor (setting [1]), the “M4 Activity” value is “xx (activity was measured to be between 0.1 μM and 1.0 μM)”. Moreover, the Emax was more than 85% on M4 muscarinic receptor (setting [2]) and 65 to 85% on M1 muscarinic receptor (setting [4]). Moreover, on M1 muscarinic receptor (setting [3]), the “M1 Activity” value is “xxx (activity was measured to be less than 0.1 μM)”.
On to `CC(C)OC(=O)N1CC[C@@H](CN2CCC3(CC2)CN(C(=O)N(C)C)c2ccc(F)cc23)C1` [compound 558], for which the Emax at M4 muscarinic receptor (setting [5]) and at M1 muscarinic receptor (setting [5]) was 25 to 100% in each case. Besides, at M4 muscarinic receptor (setting [8]), the “M4 Activity” value is “xxx (activity was measured to be less than 2.0 μM)”. Moreover, the “M1 Activity” value at M1 muscarinic receptor (setting [9]) is “xxx (activity was measured to be less than 2.0 μM)”.
As for `CCOC(=O)N1CCC(CN2CCC3(CC2)CN(C(C)=O)c2ccc(Cl)cc23)CC1` [compound 256], the “M4 Activity” value on M4 muscarinic receptor (setting [1]) is “xx (activity was measured to be between 0.1 μM and 1.0 μM)”. Besides, the Emax at M4 muscarinic receptor (setting [2]) and on M1 muscarinic receptor (setting [4]) was less than 65% each time. In addition, the “M1 Activity” value at M1 muscarinic receptor (setting [3]) was “xx (activity was measured to be between 0.1 μM and 1.0 μM)”.
Regarding `CCOC(=O)N1CCC(N2CCC3(CC2)CN(C(=O)Nc2ccccc2)c2ccccc23)CC1` [compound 433], the Emax is 25 to 100% at M4 muscarinic receptor (setting [5]) and more than 100% at M1 muscarinic receptor (setting [5]). The “M4 Activity” value at M4 muscarinic receptor (setting [8]) is on record as “xxx (activity was measured to be less than 2.0 μM)”. In addition, the “M1 Activity” value at M1 muscarinic receptor (setting [9]) is recorded as “xxx (activity was measured to be less than 2.0 μM)”.
Consider `CCOC(=O)N1CCC(N2CCC3(CC2)CN(C(C)=O)c2c(C4=CCCC4)cccc23)CC1` [compound 930], for which the Emax at M4 muscarinic receptor (setting [5]) and at M1 muscarinic receptor (setting [5]) was less than 25% each time. The “M4 Activity” value at M4 muscarinic receptor (setting [6]) is listed as “x (activity was measured to be greater than 5.0 μM)”. Besides, the “M1 Activity” value at M1 muscarinic receptor (setting [7]) was “x (activity was measured to be greater than 5.0 μM)”.
Consider `CCOC(=O)N1C2CCC1CC(N1CCC3(CC1)CN(C(C)=O)c1ccc(C(F)(F)F)cc13)C2` (centres unmarked) [compound 583], for which the Emax on M4 muscarinic receptor (setting [5]) and on M1 muscarinic receptor (setting [5]) was 25 to 100% throughout. The “M4 Activity” value on M4 muscarinic receptor (setting [8]) is on record as “xxx (activity was measured to be less than 2.0 μM)”. Further, the “M1 Activity” value at M1 muscarinic receptor (setting [9]) is reported as “xxx (activity was measured to be less than 2.0 μM)”.
Turning to `CCCOC(=O)N1CCC(N2CCC3(CC2)CN(C(C)=O)c2ccc(F)cc23)C1` (centres unmarked) [compound 632], the Emax on M4 muscarinic receptor (setting [5]) and on M1 muscarinic receptor (setting [5]) was less than 25% throughout. In addition, the “M4 Activity” value at M4 muscarinic receptor (setting [8]) is “x (activity was measured to be greater than 5.0 μM)”. Also, at M1 muscarinic receptor (setting [9]), the “M1 Activity” value was “x (activity was measured to be greater than 5.0 μM)”.
`CCOC(=O)N1CCC(N2CCC3(CC2)C[C@H](NC(C)=O)c2ccccc23)CC1` [compound 61]: the “M4 Activity” value at M4 muscarinic receptor (setting [1]) is “xx (activity was measured to be between 0.1 μM and 1.0 μM)”. Moreover, the Emax at M4 muscarinic receptor (setting [2]) and at M1 muscarinic receptor (setting [4]) was 65 to 85% in each case. Besides, the “M1 Activity” value at M1 muscarinic receptor (setting [3]) is recorded as “xxx (activity was measured to be less than 0.1 μM)”.

Source of the values: US7786141B2 (Vertex Pharmaceuticals Incorporated, priority 2004, dated 2010).
